In ChEMBL document CHEMBL3886996, “6-alkynyl-pyridine derivatives” (2016):

Biological target: Baculoviral IAP repeat-containing protein 2 (Homo sapiens, UniProt Q13490)
Experiment: Binding Assays (DELFIA): BIR3 domains (10 nM) were incubated with SMAC peptide (10 nM) in assay buffer (50 mM Tris, 120 mM NaCl, 0.1% BSA, 1 mM DTT, 0.05% Triton X100) for one hour at room temperature in the presence of inhibitory compounds. The assay mixture was transferred to a streptavidin coated plate and incubated for one hour at room temperature to allow binding of the biotinylated peptide and associated BIR3 domains to the plate. After several washing steps Eu labeled anti-GST antibody (e.g. Perkin Elmer DELFIA Eu-N1-antiGST AD0250) was added to detect BIR3 domain-SMAC peptide interactions according to Perkin Elmer's instructions. Briefly, the antibody was added (dilution 1:5000 in Perkin Elmer DELFIA Assay Buffer 2013-01) and incubated for one hour. After 3 washing steps using Delfia Washing Buffer (Perkin Elmer DELFIA Wash 2013-05), Enhancement Solution (Perkin Elmer Enhancement Asolution 2013-02) was added and incubation continued for 10 minutes.

Question: Which IC50 does the source give for `CN[C@@H](C)C(=O)Nc1ccc(-c2c(-c3cccnc3OC)nc3ccccn23)c(C#Cc2ccc3c(C)nccc3c2)n1` here?
Answer: in the range around 2 nM
